Read-outs that look alike come from different tables or passages of the source.

One may read the IC50 as the concentration that inhibits the measured activity by half.

The target in assay [1] is T1, Gastrin receptor (gastric glands) (Cavia porcellus, UniProt H0VZC5).
T1 construct: The washed guinea pig gastric glands prepared as above were resuspended; from tissue; host or cells: guinea pig gastric mucosal glands (male Hartley)
T1 sequence (H0VZC5 1-426): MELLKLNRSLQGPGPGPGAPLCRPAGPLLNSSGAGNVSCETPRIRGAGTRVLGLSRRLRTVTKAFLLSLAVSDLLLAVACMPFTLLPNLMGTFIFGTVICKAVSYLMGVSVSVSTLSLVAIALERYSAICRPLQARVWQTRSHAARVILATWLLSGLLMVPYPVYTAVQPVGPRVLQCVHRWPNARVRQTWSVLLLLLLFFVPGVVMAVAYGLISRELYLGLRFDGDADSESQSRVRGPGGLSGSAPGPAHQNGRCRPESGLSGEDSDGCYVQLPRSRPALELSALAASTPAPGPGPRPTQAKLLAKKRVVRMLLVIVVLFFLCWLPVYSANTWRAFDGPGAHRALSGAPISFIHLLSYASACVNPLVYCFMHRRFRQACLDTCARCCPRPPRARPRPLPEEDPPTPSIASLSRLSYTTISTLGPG
Put plainly: Gastrin Receptor Binding in Guinea Pig Gastric Glands. More on the design: species or system guinea pig (male Hartley).

Assay [2] has as its target T2, CCK receptor (brain, cerebral cortex) (Cavia porcellus, UniProt H0VZC5).
T2 construct: Cerebral cortex was dissected and used as a receptor source; from tissue; host or cells: guinea pig cerebral cortex membranes (male Hartley)
T2 sequence (H0VZC5 1-426): T1 sequence (H0VZC5 1-426)
Put plainly: biochemical. The class given is binding, Male Hartley guinea pigs. How it is done:
2. CCK Recepto Binding (Brain)
CCK-33 was radiolabeled and the binding was Performed according to the description for the Pancreas method with modifications according to Saito et al., J. Neurochem.
Cerebral cortex was dissected and used as a receptor source. Each gram of fresh guinea pig brain tissue was homogenized in 10 ml of Tris/Trizma buffer with a Brinkman polytron PT-10. The homogenates were centrifuged at 42,000 g for 15 minutes. Pellets were resuspended in Tris Buffer, centrifuged as above and resuspended in 200 volumes of binding assay buffer (10 mM N-2-hydroxyethyl-piperazine-N'-2-ethane sulfonic acid (HEPES), 5 mM MgCl2, 0.25 mg/ml bacitracin, 1 mM ethylene glycol-bis-(β-aminoethylether-N,N'-tetraacetic acid) (EGTA), and 0.4% bovine serum albumin (BSA)). […] All assays were run in duplicate or triplicate. The reaction mixtures were incubated at 25° C. for 2 hours and centrifuged in a Beckman Microfuge (4 minutes) immediately after adding 1 ml of ice-cold incubation buffer. The supernatant was aspirated and discarded, pellets were counted with a Beckman gamma 5000.

The mark [3] stands for this setting: IC50 ^125 I-Gastrin Gastric Glands, 25° C., 30 minutes.
Where [4] appears, read: IC50 ^125 I-CCK Brain, guinea pig cerebral cortex, ^125 I-CCK-33, 25° C., 2 hours.
The mark [5] stands for this setting: ^125 I-gastrin, 25° C., 30 minutes, read-out: IC50 ^125 I-Gastrin Gastric Glands.

`O=C(NC1N=C(c2ccccc2F)c2ccccc2NC1=O)c1ccc([N+](=O)[O-])cc1` (racemic) [Example 106, 1,3-Dihydro-3-(RS)-(4-nitrophenlcarbonyl)amino-5-(2-fluorophenyl)-2H-1,4-benzodiazepin-2-one]: the concentration for half-maximal inhibition (IC50) in assay [1] (setting [3]) is over 10 µM; in assay [2] (setting [4]), over 50 µM.

As for `O=C(NC1N=C(c2ccccc2F)c2ccccc2NC1=O)c1ccsc1` (racemic) [Example 108, 1,3-Dihydro-5-(2-fluorophenyl)-3-(RS)-(3-thiophenecarbonylamino)-2H-1,4-benzodiazepin-2-one], the IC50 in assay [1] (setting [3]) is over 10 µM; in assay [2] (setting [4]), over 50 µM.

For `O=C(NC1N=C(c2ccccc2)c2ccccc2NC1=O)c1c[nH]c2ccccc12` (racemic) [Example 109, 1,3-Dihydro-3-(RS)-(3-indolecarbonylamino)-5-phenyl-2H-1,4-benzodiazepin-2-one], the IC50 in assay [1] (setting [3]) is 18 µM; in assay [2] (setting [4]), 8.4 µM.

Regarding `O=C(Cc1cccc2sccc12)NC1N=C(c2ccccc2F)c2ccccc2NC1=O` (racemic) [Example 110, 1,3-Dihydro-3-(RS)-(4-thianaPhtheneacetyl)amino-5-(2-fluorophenyl)-2H-1,4-benzodiazepin-2-one], the IC50 was determined as 3.9 µM in assay [1] (setting [3]) and 3.3 µM in assay [2] (setting [4]).

`O=C(O)CN1C(=O)C(NC(=O)c2cc3ccccc3[nH]2)N=C(c2ccccc2F)c2ccccc21` (racemic) [Example 113, 1-Carboxymethyl-1,3-dihydro-5-(2-fluorophenyl)-3(RS)-(2-indolecarbonylamino)-2H-1,4-benzodiazepin-2-one]: the half-inhibitory concentration (IC50) in assay [1] (setting [3]) worked out at 0.39 µM; in assay [2] (setting [4]), 5.6 µM.

As for `O=C(NC1N=C(c2ccccc2F)c2ccccc2NC1=O)c1cc2cc(F)ccc2[nH]1` (racemic) [Example 114, 1,3-Dihydro-3-(RS)-(5-fluoroindole-2-carbonylamino)-5-(2-fluorophenyl)-2H-1,4-benzodiazepin-2-one], the IC50 in assay [1] (setting [3]) worked out at 4.8 µM; in assay [2] (setting [4]) it was 12 µM.

`O=C(NC1N=C(c2ccccc2F)c2ccccc2NC1=O)c1cc2cc(Cl)ccc2[nH]1` (racemic) [Example 118, 1,3-Dihydro-3-(RS)-(5-Chloroindole-2-carbonylamino)-5-(2-fluorophenyl)-2H-1,4-benzodiazepin-2-one]: the 50% inhibitory concentration (IC50) is over 10 µM in assay [1] (setting [3]) and 38 µM in assay [2] (setting [4]).

`CN(C(=O)c1cc2ccccc2[nH]1)C1N=C(c2ccccc2)c2ccccc2NC1=O` (racemic) [Example 119, 3-(RS)-[N-(2-indolecarbonyl)-N-methylamino]-1,3-dihydro-5-phenyl-2H-1,4-benzodiazepin-2-one]: the IC50 was over 10 µM in assay [1] (setting [3]) and 33 µM in assay [2] (setting [4]).

With `O=C(NC1N=C(c2ccccc2F)c2ccccc2NC1=O)c1cc2cc(Br)ccc2[nH]1` (racemic) [Example 120, 1,3-Dihydro-3-(RS)-(5-Bromoindole-2-carbonylamino)-5-(2-fluorophenyl)-2H-1,4-benzodiazepin-2-one], the IC50 in assay [1] (setting [3]) was over 10 µM; in assay [2] (setting [4]), 50 µM.

`O=C(C=Cc1ccccc1)NC1N=C(c2ccccc2F)c2ccccc2NC1=O` (racemic) [Example 121, 3-(RS)-Cinnamoylamino-1,3-dihydro-5-(2-fluorophenyl)-2H-1,4-benzodiazepin-2-one]: the IC50 amounted to 3.8 µM in assay [1] (setting [5]) and 5.5 µM in assay [2] (guinea pig cerebral cortex, ^125 I-CCK-33, 25° C., 2 hours; read-out: IC50 ^125 I-CCK Brain).

For `O=C(NC1N=C(c2ccccc2F)c2ccccc2NC1=O)c1cc2cc(O)ccc2[nH]1` (racemic) [Example 122, 1,3-Dihydro-3-(RS)-(5-hydroxy-2-indolylcarbonyl)amino-5-(2-fluorophenyl)-2H-1,4-benzodiazepin-2-one], the values for the IC50 in assay [1] (setting [3]) and in assay [2] (setting [4]) were 29 µM and 16 µM, respectively.

Take `COc1ccc2[nH]c(C(=O)NC3N=C(c4ccccc4F)c4ccccc4NC3=O)cc2c1` (racemic) [Example 126, 1,3-Dihydro-3-(RS)-(5-methoxyindole-2-carbonylamino)-5-(2-fluorophenyl)-2H-1,4-benzodiazepin-2-one]: the 50% inhibitory concentration (IC50) in assay [1] (setting [3]) was over 10 µM; in assay [2] (setting [4]), 29 µM.

As for `Cn1c(C(=O)NC2N=C(c3ccccc3F)c3ccccc3NC2=O)cc2ccccc21` (racemic) [Example 127, 1,3-Dihydro-3-(RS)-(1-methylindole-2-carbonylamino)-5-(2-fluorophenyl)-2H-1,4-benzodiazepine-2-one], the 50% inhibitory concentration (IC50) in assay [1] (setting [3]) was determined as 6.3 µM; in assay [2] (setting [4]), 7 µM.

Turning to `O=C(NC1N=C(c2ccccc2F)c2ccccc2NC1=O)c1cc2ccccc2o1` (racemic) [Example 128, 1,3-Dihydro-5-(2-fluorophenyl)-3-(RS)-(2-benzofurancarbonylamino)-2H-1,4-benzodiazepin-2-one], the half-inhibitory concentration (IC50) in assay [1] (read-out: IC50 ^125 I-Gastrin Gastric Glands, 25° C., 30 minutes) came out at 11 µM; in assay [2] (read-out: IC50 ^125 I-CCK Brain; guinea pig cerebral cortex, ^125 I-CCK-33, 25° C., 2 hours), 32 µM.

As for `CCOC(=O)CN1C(=O)C(NC(=O)c2ccc(Cl)cc2)N=C(c2ccccc2F)c2ccccc21` (racemic) [Example 129, 1-Ethoxycarbonylmethyl-1,3-dihydro-3(RS)-(4-chloro-phenylcarbonyl)amino-5-(2-fluorophenyl)-2H-1,4-benzodiazepin-2-one], the concentration for half-maximal inhibition (IC50) in assay [1] (setting [3]) turned out to be 0.69 µM; in assay [2] (setting [4]) it was 1.9 µM.

As for `O=C(NC1N=C(c2ccccc2)c2ccccc2NC1=O)c1ccc(Cl)cc1` (racemic) [Example 130, 1,3-Dihydro-3-(RS)-(4-chlorophenylcarbonyl)amino-5-phenyl-2H-1,4-benzodiazepin-2-one], the figures for the IC50 in assay [1] (setting [3]) and in assay [2] (setting [4]) were 8.2 µM and over 40 µM, respectively.

Consider `O=C(O)CN1C(=O)C(NC(=O)c2ccc(Cl)cc2)N=C(c2ccccc2F)c2ccccc21` (racemic) [Example 132, 1-Carboxymethyl-1,3-dihydro-3-(RS)-(4-chlorophenyl-carbonyl)amino-5-(2-fluorophenyl)-2H-1,4-benzodiazepin-2-one], for which the IC50 in assay [1] (setting [3]) is 8.2 µM; in assay [2] (setting [4]) it was over 100 µM.

As to `O=C(NC1N=C(c2ccccc2F)c2ccccc2NC1=O)c1ccc(C(F)(F)F)cc1` (racemic) [Example 134, 1,3-Dihydro-5-(2-fluorophenyl)-3-(RS)-(p-trifluoro-methylbenzoylamino)-2H-1,4-benzodiazepin-2-one], the IC50 in assay [1] (setting [3]) came to 9.5 µM; in assay [2] (setting [4]), 40 µM.

With `Cc1ccc(C(=O)NC2N=C(c3ccccc3F)c3ccccc3NC2=O)cc1` (racemic) [Example 135, 1,3-Dihydro-5-(2-fluorophenyl)-3-(RS)-(p-methylbenzoylamino)-2H-1,4-benzodiazepin-2-one], the IC50 in assay [1] (setting [3]) is 5 µM; in assay [2] (setting [4]) it was over 40 µM.

For `COc1ccc(C(=O)NC2N=C(c3ccccc3F)c3ccccc3NC2=O)cc1` (racemic) [Example 136, 1,3-Dihydro-5-(2-fluorophenyl)-3-(RS)-(p-methoxybenzoylamino)-2H-1,4-benzodiazepin-2-one], the 50% inhibitory concentration (IC50) in assay [1] (setting [3]) was 5.4 µM; in assay [2] (setting [4]), over 40 µM.

Turning to `O=C(NC1N=C(c2ccccc2)c2ccccc2NC1=O)c1ccccc1Cl` (racemic) [Example 137, 3-(RS)-(o-Chlorobenzoylamino)-1,3-dihydro-5-phenyl-2H-1,4-benzodiazepin-2-one], the concentration for half-maximal inhibition (IC50) in assay [1] (setting [3]) is 52 µM; in assay [2] (setting [4]), over 40 µM.

Turning to `CN1C(=O)C(N(C)C(=O)c2ccccc2Cl)N=C(c2ccccc2)c2ccccc21` (racemic) [Example 138, 3-(RS)-(N-(o-Chlorobenzoyl)-N-methylamino)-1,3-dihydro-1-methyl-5-phenyl-2H-1,4-benzodiazepin-2-one], the IC50 in assay [1] (setting [3]) is over 100 µM; in assay [2] (setting [4]), 100 µM.

On to `CN1C(=O)C(NC(=O)c2ccccc2Cl)N=C(c2ccccc2)c2ccccc21` (racemic) [Example 139, 3-(RS)-(o-Chlorobenzoylamino)-1,3-dihydro-1-methyl-5-phenyl-2H-1,4-benzodiazepin-2-one], for which the IC50 in assay [1] (setting [5]) is 30 µM; in assay [2] (setting [4]), over 100 µM.

Turning to `O=C(NC1N=C(c2ccccc2)c2ccccc2NC1=O)c1cccc(Cl)c1` (racemic) [Example 140, 3-(RS)-(m-Chlorobenzoylamino)-1,3-dihydro-5-phenyl-2H-1,4-benzodiazepin-2-one], the values for the IC50 in assay [1] (setting [3]) and in assay [2] (setting [4]) were 4.3 µM and 75 µM, respectively.

(Values after patent publication US4820834A, “Benzodiazepine analogs” (priority 1987, dated 1989).)
